Assay results taken from patent US7973072B2, “Substituted benzo-condensed cyclohexanone derivatives and the use thereof for medicament production” (Gruenenthal GmbH, priority 2005, dated 2011).

Columns and labels:
[1] = target: T1, human vanilloid receptor 1 (VR1) (Homo sapiens, UniProt Q8NER1); assay: FLIPR Ca2+ functional study on human vanilloid receptor 1 (CHO K1 cells transfected with human VR1); type: cell-based; conditions: for inhibition at 10 µM: CHO-K1, read-out: VR1 (human) (% inhibition compared to 10 μM CP); for inhibition at 10 µM / VR1 (human) (% inhibition compared to 10 μM CP): test compound 10 μM, suppression of Ca2+ current after 100 nM capsaicin, relative to maximum inhibition with 10 μM capsaicin (CP); for EC50: agonistic action
T1 construct: expressed in transfected cells; host or cells: CHO K1 cells (ECACC), stably transfected
Experimental: Chinese hamster ovary cells (CHO K1 cells, European Collection of Cell Cultures (ECACC), England) are transfected stably with the human vanilloid receptor 1 (VR1) gene or the vanilloid receptor 1 (VR1) gene of the rat. For functional studies, these cells are plated out onto poly-D-lysine-coated black 96-well plates with a clear bottom (BD Biosciences, Heidelberg, Germany) in a density of 25 000 cells/well. The cells are incubated overnight at 37° C. and 5% CO2 in culture medium (Ham's Nutrient Mixture F12, Gibco Invitrogen GmbH, Karlsruhe, Germany) with 10% by volume of FBS (fetal bovine serum, Gibco Invitrogen GmbH, Karlsruhe, Germany), and 18 μg/ml of L-proline (Gibco Invitrogen GmbH, Karlsruhe, Germany). The next day, the cells are laden with 2 μM Fluo-4 and 0.01% by volume of Pluronic F127 (Molecular Probes Europe BV, Leiden, The Netherlands) in HBSS buffer (Hank's buffered saline solution, Gibco Invitrogen GmbH, Karlsruhe, Germany) at 37° C. for 30 min. Subsequently, the plates are washed 3 times with HBSS buffer and, after a further incubation of 15 minutes at room temperature, used for Ca^2+ measurement in the FLIPR assay. The Ca^2+-dependent fluorescence is measured before and after addition of substances λex=488 nm, λem=540 nm). The quantification is effected by measuring the highest fluorescence intensity (FC, fluorescence counts) over the time.
The FLIPR protocol consists of 2 substance additions. First, the compounds to be tested (10 μM) are pipetted onto the cells obtained according to Ia or Ib and the Ca^2+ current is compared with the control (capsaicin 10 μM). This gives rise to the result in % activation based on the Ca^2+ signal after addition of 10 μM capsaicin (CP). After incubation for 5 minutes, 100 nM capsaicin is applied and the current of Ca^2+ is likewise determined.
Desensitizing agonists and antagonists lead to a suppression in the Ca^2+ current. % inhibition is calculated compared to the maximum achievable inhibition with 10 μM capsaicin.
Triple determinations (n=3) are performed and they are repeated in at least 3 independent experiments (N=4).

[2] = target: T2, vanilloid receptor 1 (VR1/TRPV1) of the rat (Rattus norvegicus, UniProt O35433); assay: FLIPR Ca2+ functional study on rat vanilloid receptor 1 (rat dorsal root ganglia cells or CHO K1 cells transfected with rat VR1); type: cell-based; conditions: for activation at 10 µM / inhibition at 10 µM: CHO-K1; for activation at 10 µM / inhibition at 10 µM / VR1 (rat) (% stimulation compared to 10 μM CP) / VR1 (rat) (% inhibition compared to 10 μM CP): test compound 10 μM; for activation at 10 µM / VR1 (rat) (% stimulation compared to 10 μM CP): % activation based on Ca2+ signal after 10 μM capsaicin (CP); for activation at 10 µM: read-out: VR1 (rat) (% stimulation compared to 10 μM CP); for inhibition at 10 µM / VR1 (rat) (% inhibition compared to 10 μM CP): suppression of Ca2+ current after 100 nM capsaicin, relative to maximum inhibition with 10 μM capsaicin (CP); for inhibition at 10 µM: read-out: VR1 (rat) (% inhibition compared to 10 μM CP); for EC50: agonistic action
T2 construct: host or cells: rat dorsal root ganglia primary cells (Ia) or CHO K1 cells stably transfected with the rat VR1 gene (Ib)
Experimental: The agonistic or antagonistic action of the substances to be studied on the vanilloid receptor 1 (VR1/TRPV1) of the rat species can be determined with the following assay. In this assay, the Ca^2+ current through the receptor channel is quantified with the aid of a Ca^2+-sensitive dye (Fluo-4 type, Molecular Probes Europe BV, Leiden the Netherlands) in a fluorescent imaging plate reader (FLIPR, Molecular Devices, Sunnyvale, USA).
Complete medium: 50 ml HAMS F12 Nutrient Mixture (Gibco Invitrogen GmbH, Karlsruhe, Germany) with
10% by volume of FCS (fetal calf serum, Gibco Invitrogen GmbH, Karlsruhe, Germany, heat-inactivated);
2 mM L-glutamine (Sigma, Munich, Germany);
1% by weight of AA solution (antibiotic/antimycotic solution, PAA, Pasching, Austria) and 25 ng/ml of NGF medium (2.5 S, Gibco Invitrogen GmbH, Karlsruhe, Germany)
Cell culture plate: poly-D-lysine-coated, black 96-hole plates with a clear bottom (96 well black/clear plate, BD Biosciences, Heidelberg, Germany) are additionally coated with laminin (Gibco Invitrogen GmbH, Karlsruhe, Germany) by diluting laminin to a concentration of 100 μg/ml with PBS (Ca—Mg-free PBS, Gibco Invitrogen GmbH, Karlsruhe, Germany). Aliquots having a concentration of 100 μg/ml of laminin are withdrawn and stored at −20° C. The aliquots are diluted with PBS in a ratio of 1:10 to 10 μg/ml of laminin and in each case 50 μl of the solution are pipetted into a well of the cell culture plate. The cell culture plates are incubated at 37° C. for at least two hours, the supernatant solution is removed by suction and the wells are each washed twice with PBS. The coated cell culture plates are stored with supernatant PBS which is not removed until directly before the application of the cells.
The spinal column is removed from beheaded rats and placed directly into cold HBSS buffer (Hank's buffered saline solution, Gibco Invitrogen GmbH, Karlsruhe, Germany), i.e. placed in an ice bath, which has been admixed with 1% by volume of an AA solution (antibiotic/antimycotic solution, PAA, Pasching, Austria). The spinal column is severed longitudinally and removed from the spinal canal together with fasciae. Subsequently, the dorsal root ganglia (DRGs) are removed and in turn stored in cold HBSS buffer admixed with 1% by volume of an […]. The DRGs freed completely of blood residues and spinal nerves are in each case transferred to 500 μl of cold type 2 collagenase (PAA, Pasching, Austria) and incubated at 37° C. for 35 minutes. After addition of 2.5% by volume of trypsin (PAA, Pasching, Austria), incubation is continued at 37° C. for a further 10 minutes. After complete incubation, the enzyme solution is cautiously pipetted off and the remaining DRGs are each admixed with 500 μl of complete medium.
The DRGs are each suspended repeatedly, drawn through cannulas No. 1, No. 12 and No. 16 by means of a syringe and transferred to 50 ml Falcon tubes which are made up to 15 ml with complete medium. The contents of each Falcon tube are in each case filtered through a 70 μm Falcon filter insert and centrifuged at 1200 revolutions and room temperature for 10 minutes. The resulting pellet is in each case taken up in 250 μl of complete medium and the cell count is determined.
The number of cells in the suspension is adjusted to 3 times 10^5 per ml and in each case 150 μl of this suspension are added to one well of the cell culture plates coated as described above. In the incubator, the plates are left to stand at 37° C., 5% by volume of CO2 and 95% relative air humidity for two to three days.
Subsequently, the cells are laden with 2 μM Fluo-4 and 0.01% by volume of Pluronic F127 (Molecular Probes Europe BV, Leiden, the Netherlands) in HBSS buffer (Hank's buffered saline solution, Gibco Invitrogen GmbH, Karlsruhe, Germany) at 37° C. for 30 min, washed 3× with HBSS buffer and, after a further incubation of 15 minutes, used in the FLIPR assay at room temperature for Ca^2+ measurement. […]

T2 sequence (O35433 whole entry): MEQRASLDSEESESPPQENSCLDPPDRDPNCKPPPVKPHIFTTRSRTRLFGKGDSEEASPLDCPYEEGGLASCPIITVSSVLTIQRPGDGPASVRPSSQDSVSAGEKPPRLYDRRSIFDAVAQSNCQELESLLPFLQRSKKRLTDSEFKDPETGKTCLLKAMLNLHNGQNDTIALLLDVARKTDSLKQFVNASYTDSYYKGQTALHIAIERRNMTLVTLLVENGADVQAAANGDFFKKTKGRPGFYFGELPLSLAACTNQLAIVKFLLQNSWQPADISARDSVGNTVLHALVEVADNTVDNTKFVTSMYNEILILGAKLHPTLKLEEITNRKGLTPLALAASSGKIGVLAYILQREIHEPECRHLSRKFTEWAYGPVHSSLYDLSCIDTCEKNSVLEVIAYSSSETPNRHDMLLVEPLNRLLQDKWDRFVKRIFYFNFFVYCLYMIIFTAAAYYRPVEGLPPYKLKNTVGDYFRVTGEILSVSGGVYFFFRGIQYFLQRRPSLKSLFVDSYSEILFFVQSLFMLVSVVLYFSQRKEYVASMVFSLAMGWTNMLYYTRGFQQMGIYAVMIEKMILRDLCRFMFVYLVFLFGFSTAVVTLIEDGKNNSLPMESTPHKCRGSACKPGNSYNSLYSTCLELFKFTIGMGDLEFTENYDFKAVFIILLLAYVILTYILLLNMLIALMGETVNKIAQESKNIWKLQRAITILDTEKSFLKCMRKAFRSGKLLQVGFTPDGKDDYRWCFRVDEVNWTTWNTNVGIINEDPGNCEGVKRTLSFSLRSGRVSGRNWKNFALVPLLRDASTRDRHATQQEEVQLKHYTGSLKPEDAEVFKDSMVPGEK
T1 sequence (Q8NER1 whole entry): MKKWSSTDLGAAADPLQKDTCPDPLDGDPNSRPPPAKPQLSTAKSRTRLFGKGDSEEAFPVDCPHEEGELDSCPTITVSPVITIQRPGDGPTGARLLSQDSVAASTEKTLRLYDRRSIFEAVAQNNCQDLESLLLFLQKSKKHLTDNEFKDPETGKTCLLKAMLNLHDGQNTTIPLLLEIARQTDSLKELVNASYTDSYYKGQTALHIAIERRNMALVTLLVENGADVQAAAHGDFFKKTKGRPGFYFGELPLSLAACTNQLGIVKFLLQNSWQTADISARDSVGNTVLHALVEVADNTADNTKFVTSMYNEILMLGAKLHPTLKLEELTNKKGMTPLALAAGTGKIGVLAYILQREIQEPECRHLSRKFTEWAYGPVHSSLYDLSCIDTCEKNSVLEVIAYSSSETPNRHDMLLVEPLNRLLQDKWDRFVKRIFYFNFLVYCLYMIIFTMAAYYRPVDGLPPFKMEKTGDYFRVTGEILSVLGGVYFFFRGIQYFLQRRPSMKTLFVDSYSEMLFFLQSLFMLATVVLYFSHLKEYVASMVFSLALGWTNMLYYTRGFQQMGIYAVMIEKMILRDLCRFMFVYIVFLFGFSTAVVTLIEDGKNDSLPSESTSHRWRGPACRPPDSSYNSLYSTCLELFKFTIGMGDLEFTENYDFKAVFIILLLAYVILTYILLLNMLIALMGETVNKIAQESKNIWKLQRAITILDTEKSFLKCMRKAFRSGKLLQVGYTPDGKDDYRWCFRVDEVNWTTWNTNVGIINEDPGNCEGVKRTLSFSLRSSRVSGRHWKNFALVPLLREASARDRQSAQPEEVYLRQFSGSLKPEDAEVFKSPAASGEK

Row | Compound | inhibition at 10 µM [1] | activation at 10 µM [2] | inhibition at 10 µM [2] | EC50 ([1]; FLIPR) | EC50 ([2]; FLIPR) | melting point | VR1 (human) (% inhibition compared to 10 μM CP) [1] | VR1 (rat) (% stimulation compared to 10 μM CP) [2] | VR1 (rat) (% inhibition compared to 10 μM CP) [2] | further results
1 | Cc1cccc2c1SCC(CO)(COS(=O)(=O)c1ccc(C(C)(C)C)cc1)C2=O (stereo not shown) [Example Compound 13, 4-tert-butylbenzenesulfonic acid 3-hydroxymethyl-8-methyl-4-oxo-thiochroman-3-ylmethyl ester] | 23.8% | 0.81% | 40.3% |  |  |  |  |  |  | 
2 | Cc1cccc2c1C(=O)C(COC(=O)Nc1ccccc1)(COC(=O)Nc1ccccc1)CS2 [Example Compound 40, (5-methyl-4-oxothiochroman-3,3-diyl)bis(methylene)bis(phenylcarbamate)] | 96.6% | 67% | 106% | 1.4 µM | 4.1 µM |  |  |  |  | 
3 | O=C(Nc1ccccc1)OCC1(COC(=O)Nc2ccccc2)CSc2ccccc2C1=O [Example Compound 41, 3,3-bis(phenylcarbamoyloxymethyl)thiochroman-4-one] | 95% | 38% | 14% | 0.995 µM | 2.4 µM |  |  |  |  | 
4 | COc1ccc(NC(=O)OCC2(COC(=O)Nc3ccc(OC)cc3)CSc3ccccc3C2=O)cc1 [Example Compound 42, 3,3-bis(4-methoxyphenylcarbamoyloxymethyl)thiochroman-4-one] | 73.2% | 37.8% | 41.1% | 3.05 µM | 9.95 µM | 58 to 63 °C |  |  |  | 
5 | O=C(Nc1ccccc1)OCC1(COC(=O)Nc2ccccc2)CS(=O)(=O)c2ccccc2C1=O [Example Compound 43, 3,3-bis(phenylcarbamoyloxymethyl)-1,1-dioxo-1λ^6-thiochroman-4-one] | 9.79% | 48.5% | 83.9% | 9 µM | 25.4 µM | 72 to 78 °C |  |  |  | 
6 | Cc1cccc2c1C(=O)C(COC(=O)Nc1ccccc1)(COC(=O)Nc1ccccc1)CS2(=O)=O [Example Compound 46, 3,3-bis(phenylcarbamoyloxymethyl)-5-methyl-1,1-dioxo-1λ^6-thiochroman-4-one] | 38.5% | 25% | 96.8% | 6.4 µM | 13.8 µM |  |  |  |  | 
7 | CC(C)(C)c1ccccc1NC(=O)OCC1(COC(=O)Nc2ccccc2C(C)(C)C)CSc2ccccc2C1=O [Example Compound 51, 3,3-bis(2-tert-butylphenylcarbamoyloxymethyl)thiochroman-4-one] |  |  |  |  |  | 62 to 68 °C |  |  |  | 
8 | O=C(Nc1ccc(C(F)(F)F)cc1)OCC1(COC(=O)Nc2ccc(C(F)(F)F)cc2)CSc2ccccc2C1=O [Example Compound 52, 3,3-bis(4-trifluoromethylphenylcarbamoyloxymethyl)thiochroman-4-one] |  |  |  |  |  | 76 to 82 °C |  |  |  | 
9 | O=C(Nc1cccc(C(F)(F)F)c1)OCC1(COC(=O)Nc2cccc(C(F)(F)F)c2)CSc2ccccc2C1=O [Example Compound 54, 3,3-bis(3-trifluoromethylphenylcarbamoyloxymethyl)thiochroman-4-one] |  |  |  |  |  | 58 to 63 °C |  |  |  | 
10 | (6-fluoro-4-oxothiochroman-3,3-diyl)bis(methylene)bis(3-(trifluoromethyl)phenylcarbamate) [Example Compound 30] |  |  |  |  |  |  | 80.26% | 94.65% | 44.38% | 
11 | (7,8-dichloro-4-oxothiochroman-3,3-diyl)bis(methylene)bis(2-(trifluoromethyl)phenylcarbamate) [Example Compound 31] |  |  |  |  |  |  | 83.36% | 22.05% | 38.68% | 
12 | (7,8-dichloro-4-oxothiochroman-3,3-diyl)bis(methylene)bis(3-(trifluoromethyl)phenylcarbamate) [Example Compound 29] |  |  |  |  |  |  | 91.55% | 88.01% | 100.80% | 
13 | (7-methyl-4-oxothiochroman-3,3-diyl)bis(methylene)bis(phenylcarbamate) [Example Compound 39] |  |  |  | 0.99 µM | 5.86 µM |  | 88.33% | 109.36% | 119.74% | 
14 | (8-chloro-4-oxothiochroman-3,3-diyl)bis(methylene)bis(2-(trifluoromethyl)phenylcarbamate) [Example Compound 14] |  |  |  |  |  |  | 69.64% | 17.64% | 61.99% | 
15 | (8-chloro-4-oxothiochroman-3,3-diyl)bis(methylene)bis(3-(trifluoromethyl)phenylcarbamate) [Example Compound 20] |  |  |  |  |  |  | 88.98% | 47.96% | 107.78% | IC50 ([1]; FLIPR, antagonistic action): 5.78 µM; IC50 ([2]; FLIPR, antagonistic action): 6.44 µM
